Measured values from the NIST ThermoML archive (doi:10.1016/j.jct.2005.10.019).
Numbers after ± are expanded uncertainties.

Assays:
[1] = 298.15 K; 101.33 kPa; Liquid
[2] = excess molar enthalpy (molar enthalpy of mixing); xn = mol fraction of the nth substance listed; conditions: 298.15 K, 101 kPa, Liquid

COC(=O)[C@H](C)CO [(2R)-3-hydroxy-2-methyl-propanoic acid methyl ester]
Conditions | mass density [kg/m3]
[1] | 1067.5 ± 0.2

COC(=O)[C@H](C)CO [(2R)-3-hydroxy-2-methyl-propanoic acid methyl ester] + COC(=O)[C@@H](C)CO
[2]
Conditions | excess molar enthalpy [kJ/mol]
x2 = 0.08854 | 0.0031 ± 0.00052
x2 = 0.08893 | 0.00329 ± 0.00052
x2 = 0.08959 | 0.00301 ± 0.00052
x2 = 0.1627 | 0.00547 ± 0.00053
x2 = 0.1633 | 0.00532 ± 0.00053
x2 = 0.1645 | 0.00545 ± 0.00053
x2 = 0.2257 | 0.00717 ± 0.00054
x2 = 0.2265 | 0.00704 ± 0.00054
x2 = 0.2279 | 0.00718 ± 0.00054
x2 = 0.2798 | 0.00831 ± 0.00054
x2 = 0.2808 | 0.00828 ± 0.00054
x2 = 0.2825 | 0.00839 ± 0.00054
x2 = 0.3269 | 0.00912 ± 0.00055
x2 = 0.328 | 0.00907 ± 0.00055
x2 = 0.3298 | 0.00923 ± 0.00055
x2 = 0.3682 | 0.00969 ± 0.00055
x2 = 0.3693 | 0.00965 ± 0.00055
x2 = 0.3713 | 0.00977 ± 0.00055
x2 = 0.4048 | 0.0101 ± 0.00055
x2 = 0.4059 | 0.01 ± 0.00055
x2 = 0.4079 | 0.0101 ± 0.00055
x2 = 0.4373 | 0.0103 ± 0.00055
x2 = 0.4385 | 0.0103 ± 0.00055
x2 = 0.4405 | 0.0104 ± 0.00055
x2 = 0.4665 | 0.0105 ± 0.00055
x2 = 0.4677 | 0.0104 ± 0.00055
x2 = 0.4697 | 0.0105 ± 0.00055
x2 = 0.4928 | 0.0105 ± 0.00055
x2 = 0.4939 | 0.0105 ± 0.00055
x2 = 0.496 | 0.0105 ± 0.00055
x2 = 0.5037 | 0.0106 ± 0.00055
x2 = 0.5048 | 0.0106 ± 0.00055
x2 = 0.53 | 0.0105 ± 0.00055
x2 = 0.5311 | 0.0106 ± 0.00055
x2 = 0.5592 | 0.0104 ± 0.00055
x2 = 0.5602 | 0.0104 ± 0.00055
x2 = 0.5918 | 0.0101 ± 0.00055
x2 = 0.5928 | 0.0102 ± 0.00055
x2 = 0.6285 | 0.00973 ± 0.00055
x2 = 0.6294 | 0.00976 ± 0.00055
x2 = 0.6699 | 0.0091 ± 0.00055
x2 = 0.6709 | 0.00914 ± 0.00055
x2 = 0.7173 | 0.00821 ± 0.00054
x2 = 0.7182 | 0.00827 ± 0.00054
x2 = 0.7718 | 0.00697 ± 0.00053
x2 = 0.7726 | 0.00704 ± 0.00054
x2 = 0.8354 | 0.00524 ± 0.00053
x2 = 0.836 | 0.00527 ± 0.00053
x2 = 0.9103 | 0.00294 ± 0.00052
x2 = 0.9107 | 0.00294 ± 0.00052

ClC[C@H]1CO1 [(2R)-(chloromethyl)-oxirane]
Conditions | mass density [kg/m3]
[1] | 1093.3 ± 1.3

ClC[C@H]1CO1 [(2R)-(chloromethyl)-oxirane] + ClC[C@@H]1CO1
[2]
Conditions | excess molar enthalpy [kJ/mol]
x2 = 0.01821 | 0.000852 ± 0.00054
x2 = 0.03578 | 0.00166 ± 0.00055
x2 = 0.05272 | 0.00242 ± 0.00055
x2 = 0.05939 | 0.00277 ± 0.00055
x2 = 0.06908 | 0.0031 ± 0.00055
x2 = 0.08489 | 0.00373 ± 0.00056
x2 = 0.1002 | 0.0043 ± 0.00056
x2 = 0.1121 | 0.00477 ± 0.00056
x2 = 0.1149 | 0.00484 ± 0.00056
x2 = 0.1292 | 0.00536 ± 0.00056
x2 = 0.1373 | 0.00555 ± 0.00056
x2 = 0.1431 | 0.00583 ± 0.00057
x2 = 0.1565 | 0.00626 ± 0.00057
x2 = 0.1593 | 0.0063 ± 0.00057
x2 = 0.1695 | 0.00667 ± 0.00057
x2 = 0.1706 | 0.00679 ± 0.00057
x2 = 0.1821 | 0.00707 ± 0.00057
x2 = 0.1943 | 0.00744 ± 0.00057
x2 = 0.2016 | 0.00758 ± 0.00057
x2 = 0.2399 | 0.00848 ± 0.00058
x2 = 0.2414 | 0.00873 ± 0.00058
x2 = 0.2748 | 0.00949 ± 0.00058
x2 = 0.2915 | 0.01 ± 0.00059
x2 = 0.3065 | 0.00986 ± 0.00059
x2 = 0.3231 | 0.0105 ± 0.00059
x2 = 0.3356 | 0.0104 ± 0.00059
x2 = 0.3624 | 0.011 ± 0.00059
x2 = 0.3693 | 0.0111 ± 0.00059
x2 = 0.3816 | 0.0115 ± 0.00059
x2 = 0.387 | 0.0113 ± 0.00059
x2 = 0.3889 | 0.0114 ± 0.00059
x2 = 0.4009 | 0.0115 ± 0.00059
x2 = 0.4099 | 0.0117 ± 0.00059
x2 = 0.417 | 0.0115 ± 0.00059
x2 = 0.4311 | 0.0117 ± 0.00059
x2 = 0.4384 | 0.0118 ± 0.00059
x2 = 0.4431 | 0.0118 ± 0.00059
x2 = 0.4498 | 0.012 ± 0.00059
x2 = 0.4508 | 0.0116 ± 0.00059
x2 = 0.4514 | 0.0119 ± 0.00059
x2 = 0.4837 | 0.012 ± 0.00059
x2 = 0.4882 | 0.0121 ± 0.0006
x2 = 0.4884 | 0.012 ± 0.00059
x2 = 0.5071 | 0.0122 ± 0.0006
x2 = 0.5269 | 0.0119 ± 0.00059
x2 = 0.5337 | 0.012 ± 0.00059
x2 = 0.5394 | 0.0119 ± 0.00059
x2 = 0.5525 | 0.012 ± 0.00059
x2 = 0.5886 | 0.0117 ± 0.00059
x2 = 0.5902 | 0.0118 ± 0.00059
x2 = 0.6096 | 0.0114 ± 0.00059
x2 = 0.6221 | 0.0114 ± 0.00059
x2 = 0.6561 | 0.0109 ± 0.00059
x2 = 0.7008 | 0.01 ± 0.00059
x2 = 0.741 | 0.00924 ± 0.00058
x2 = 0.7793 | 0.0082 ± 0.00058
x2 = 0.7927 | 0.00781 ± 0.00057
x2 = 0.8067 | 0.00715 ± 0.00057
x2 = 0.8211 | 0.00675 ± 0.00057
x2 = 0.8241 | 0.0069 ± 0.00057
x2 = 0.8361 | 0.0063 ± 0.00057
x2 = 0.8513 | 0.00601 ± 0.00057
x2 = 0.8516 | 0.00572 ± 0.00056
x2 = 0.8677 | 0.00541 ± 0.00056
x2 = 0.8844 | 0.00473 ± 0.00056
x2 = 0.9018 | 0.004 ± 0.00056
x2 = 0.9198 | 0.00331 ± 0.00055
x2 = 0.9387 | 0.0026 ± 0.00055
x2 = 0.9583 | 0.00177 ± 0.00055
x2 = 0.9787 | 0.000913 ± 0.00054

COC(=O)[C@@H](C)CO [(2S)-3-hydroxy-2-methyl-propanoic acid methyl ester]
Conditions | mass density [kg/m3]
[1] | 1069.6 ± 0.2

ClC[C@@H]1CO1 [(2S)-chloromethyl-oxirane]
Conditions | mass density [kg/m3]
[1] | 1093.5 ± 1.3

C[C@@H]1COC(=O)O1 [(R)-4-methyl-1,3-dioxolan-2-one]
Conditions | mass density [kg/m3]
[1] | 1199.4 ± 0.3
